According to ChEMBL document CHEMBL1201862, “PubChem BioAssay data set” (2004):
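The compound was tested at five concentrations on cells cultured in 96-well plates, with a 48-hour exposure period. GI50 marks 50% less growth.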 The source made the active and inactive calls. Rule as the data show it: active = GI50 up to about 1.1 µM and inactive = higher.

Experiments:
Assay in all cases: NCI anticancer screen, dose series, 48 h
UO-31 = system: UO-31
KM12 = system: KM12
LOX IMVI = system: LOX IMVI
HOP-62 = system: HOP-62
HCT-15 = system: HCT-15
SNB-19 = system: SNB-19
NCI-H522 = system: NCI-H522
786-0 = system: 786-0
SN12C = system: SN12C
ACHN = system: ACHN
RPMI-8226 = system: RPMI-8226
Malme-3M = system: Malme-3M
OVCAR-5 = system: OVCAR-5
MDA-N = system: MDA-N
M14 = system: M14
UACC-257 = system: UACC-257
SF-295 = system: SF-295
SF-268 = system: SF-268
CAKI-1 = system: CAKI-1

SMILES	GI50 (UO-31)	GI50 (KM12)	GI50 (LOX IMVI)	GI50 (HOP-62)	GI50 (HCT-15) [µM]	GI50 (SNB-19)	GI50 (NCI-H522)	GI50 (786-0)	GI50 (SN12C)	GI50 (ACHN)	GI50 (RPMI-8226)	GI50 (Malme-3M)	GI50 (OVCAR-5)	GI50 (MDA-N)	GI50 (M14)	GI50 (UACC-257)	GI50 (SF-295)	GI50 (SF-268)	GI50 (CAKI-1)
O=C(CCc1ccc(O)c(O)c1)NCCc1cc(O)c(O)c(O)c1	44.6 µM (inactive)	25.4 µM (inactive)	17.7 µM (inactive)	45.7 µM (inactive)	16.4	> 100 µM (inactive)	17.2 µM (inactive)	18.6 µM (inactive)	17.9 µM (inactive)	33.8 µM (inactive)	36.7 µM (inactive)	> 100 µM (inactive)	61.2 µM (inactive)	16.9 µM (inactive)	22.4 µM (inactive)	50.1 µM (inactive)	19 µM (inactive)	41.1 µM (inactive)	–
N=C(N)C1CN(CCc2c[nH]cn2)C(=O)NC1=O (centres undefined)	> 100 µM (inactive)	> 100 µM (inactive)	–	> 100 µM (inactive)	> 100	> 100 µM (inactive)	> 100 µM (inactive)	> 100 µM (inactive)	> 100 µM (inactive)	> 100 µM (inactive)	> 100 µM (inactive)	36 µM (inactive)	> 100 µM (inactive)	> 100 µM (inactive)	> 100 µM (inactive)	> 100 µM (inactive)	> 100 µM (inactive)	> 100 µM (inactive)	> 100 µM (inactive)
O=c1[nH][nH]c(=O)n1Cc1ccccc1	> 100 µM (inactive)	> 100 µM (inactive)	> 100 µM (inactive)	–	> 100	> 100 µM (inactive)	> 100 µM (inactive)	> 100 µM (inactive)	> 100 µM (inactive)	–	> 100 µM (inactive)	> 100 µM (inactive)	> 100 µM (inactive)	> 100 µM (inactive)	> 100 µM (inactive)	> 100 µM (inactive)	–	> 100 µM (inactive)	> 100 µM (inactive)
CC(=O)N1CCn2c1nc1cc(Cl)ccc12	–	> 100 µM (inactive)	39.2 µM (inactive)	19.4 µM (inactive)	35.2	69 µM (inactive)	42.5 µM (inactive)	> 100 µM (inactive)	> 100 µM (inactive)	34.4 µM (inactive)	–	> 100 µM (inactive)	> 100 µM (inactive)	> 100 µM (inactive)	> 100 µM (inactive)	> 100 µM (inactive)	47.8 µM (inactive)	32.2 µM (inactive)	> 100 µM (inactive)
COCOc1ccc(C(=O)C(C)c2ccc(OCOC)cc2OCOC)c(O)c1 (centres undefined)	33.2 µM (inactive)	–	–	> 100 µM (inactive)	78.9	> 100 µM (inactive)	41.5 µM (inactive)	> 100 µM (inactive)	> 100 µM (inactive)	> 100 µM (inactive)	71.1 µM (inactive)	> 100 µM (inactive)	> 100 µM (inactive)	52.8 µM (inactive)	> 100 µM (inactive)	56.4 µM (inactive)	–	> 100 µM (inactive)	52.1 µM (inactive)
Cc1nn(C)c2nc3ccc(Cl)cc3c(-c3ccccc3)c12	> 100 µM (inactive)	> 100 µM (inactive)	–	> 100 µM (inactive)	> 100	> 100 µM (inactive)	> 100 µM (inactive)	> 100 µM (inactive)	> 100 µM (inactive)	> 100 µM (inactive)	> 100 µM (inactive)	> 100 µM (inactive)	95.3 µM (inactive)	> 100 µM (inactive)	> 100 µM (inactive)	> 100 µM (inactive)	> 100 µM (inactive)	> 100 µM (inactive)	> 100 µM (inactive)
c1ccc(-c2cc(-c3cc(-c4ccccc4)[nH]n3)[nH]n2)cc1	> 100 µM (inactive)	> 100 µM (inactive)	–	> 100 µM (inactive)	> 100	> 100 µM (inactive)	> 100 µM (inactive)	> 100 µM (inactive)	> 100 µM (inactive)	> 100 µM (inactive)	–	> 100 µM (inactive)	> 100 µM (inactive)	> 100 µM (inactive)	> 100 µM (inactive)	> 100 µM (inactive)	> 100 µM (inactive)	> 100 µM (inactive)	> 100 µM (inactive)
Cc1ccccc1NC(=S)N/N=C(/c1ccccc1)c1ccccn1	0.0266 µM (active)	0.0405 µM (active)	< 0.01 µM (active)	0.0331 µM (active)	< 0.01	1.62 µM (inactive)	0.0902 µM (active)	< 0.0214 µM (active)	0.067 µM (active)	< 0.01 µM (active)	< 0.01 µM (active)	–	< 0.0165 µM (active)	0.7 µM (active)	< 0.027 µM (active)	< 0.01 µM (active)	0.0883 µM (active)	0.0904 µM (active)	0.0743 µM (active)
Cc1ccc2c(c1)Nc1cc(C(F)(F)F)ccc1[PH]2=O (centres undefined)	0.225 µM (active)	31.5 µM (inactive)	26.1 µM (inactive)	29.1 µM (inactive)	43.6	18.9 µM (inactive)	21.7 µM (inactive)	66.4 µM (inactive)	32.8 µM (inactive)	16.6 µM (inactive)	–	31.8 µM (inactive)	50.2 µM (inactive)	41.2 µM (inactive)	65.2 µM (inactive)	28.2 µM (inactive)	5.57 µM (inactive)	34 µM (inactive)	47.4 µM (inactive)
CCOC(=O)c1nc2ccccc2nc1Nc1ccc(OC)c(OC)c1	> 100 µM (inactive)	> 100 µM (inactive)	–	> 100 µM (inactive)	> 100	> 100 µM (inactive)	> 100 µM (inactive)	77.1 µM (inactive)	> 100 µM (inactive)	> 100 µM (inactive)	> 100 µM (inactive)	> 100 µM (inactive)	> 100 µM (inactive)	> 100 µM (inactive)	> 100 µM (inactive)	–	> 100 µM (inactive)	27.3 µM (inactive)	> 100 µM (inactive)
COc1ccc(Nc2nn3c(=O)c4c(C)c(C)sc4nc3s2)cc1	18 µM (inactive)	44.8 µM (inactive)	56.9 µM (inactive)	29.1 µM (inactive)	44.7	47.6 µM (inactive)	25.5 µM (inactive)	23.2 µM (inactive)	33.5 µM (inactive)	41.4 µM (inactive)	–	32.2 µM (inactive)	52.4 µM (inactive)	45.6 µM (inactive)	61.1 µM (inactive)	29.9 µM (inactive)	37.7 µM (inactive)	5.98 µM (inactive)	39.3 µM (inactive)
COc1ccc(-c2nnc3n(Cc4ccccc4)c4ccccc4n3c2=O)cc1	39.9 µM (inactive)	> 100 µM (inactive)	49.9 µM (inactive)	1.92 µM (inactive)	> 100	23.2 µM (inactive)	17.3 µM (inactive)	10.9 µM (inactive)	55 µM (inactive)	15.2 µM (inactive)	–	51.9 µM (inactive)	42.8 µM (inactive)	> 100 µM (inactive)	77.6 µM (inactive)	37.4 µM (inactive)	15.9 µM (inactive)	22.7 µM (inactive)	13.9 µM (inactive)
Cc1cc(S(=O)(=O)O)ccc1/N=N/c1c(O)ccc2ccccc12	> 100 µM (inactive)	> 100 µM (inactive)	–	> 100 µM (inactive)	> 100	> 100 µM (inactive)	> 100 µM (inactive)	> 100 µM (inactive)	> 100 µM (inactive)	> 100 µM (inactive)	> 100 µM (inactive)	> 100 µM (inactive)	> 100 µM (inactive)	> 100 µM (inactive)	> 100 µM (inactive)	> 100 µM (inactive)	> 100 µM (inactive)	> 100 µM (inactive)	> 100 µM (inactive)
CC(=O)[C@H]1[C@H](O)C[C@@]2(C)[C@@H]3CCc4cc(O)c(OC5OC(CO)C(O)C(O)C5O)cc4C3(C)C(=O)C[C@]12C (some centres undefined)	> 100 µM (inactive)	> 100 µM (inactive)	> 100 µM (inactive)	> 100 µM (inactive)	> 100	> 100 µM (inactive)	> 100 µM (inactive)	> 100 µM (inactive)	> 100 µM (inactive)	> 100 µM (inactive)	–	> 100 µM (inactive)	> 100 µM (inactive)	> 100 µM (inactive)	> 100 µM (inactive)	> 100 µM (inactive)	> 100 µM (inactive)	> 100 µM (inactive)	> 100 µM (inactive)
COc1cccc(-c2cc(O)c3c(C)ccnc3n2)c1	0.0703 µM (active)	0.0257 µM (active)	0.0625 µM (active)	0.0463 µM (active)	0.0486	0.031 µM (active)	0.0275 µM (active)	0.0449 µM (active)	0.0655 µM (active)	0.0483 µM (active)	0.0327 µM (active)	< 0.01 µM (active)	0.0748 µM (active)	< 0.01 µM (active)	0.0239 µM (active)	–	0.029 µM (active)	0.0439 µM (active)	–
C=C(C)[C@@H]1CC[C@@]2(C)[C@H]1[C@H]1CCC3[C@@]4(C)CC[C@H](O)C(C)(C)[C@@H]4CC[C@@]3(C)[C@]1(C)C[C@@H]2O (some centres undefined) [CALENDULADIOL]	–	39.4 µM (inactive)	46.2 µM (inactive)	> 100 µM (inactive)	18.5	54.7 µM (inactive)	17.6 µM (inactive)	38 µM (inactive)	87.9 µM (inactive)	21.9 µM (inactive)	–	33 µM (inactive)	63.2 µM (inactive)	43 µM (inactive)	> 100 µM (inactive)	55.2 µM (inactive)	23.7 µM (inactive)	87.1 µM (inactive)	48.4 µM (inactive)
